Assay results from patent US20260285880A1, “SUBSTITUTED DIHYDROTHIENOPYRIMIDINE COMPOUND, PREPARATION METHOD THEREFOR, AND USE THEREOF” (SHANGHAI YIDI BIOTECHNOLOGY CO., LTD., priority 2023, published 2026).
Read-outs that look alike come from different tables or passages of the source.

Key:
Flpin-293-PDE4B2 cells [1] = molecular target: T1, Flpin-293-PDE4B2 cells (Homo sapiens, UniProt Q07343); settings: for IC50: read-out: PDE4B2 IC50 Cell, Foskolin; for Cell Inhibition % @1 nM: 0.001 µM; for Cell Inhibition % @10 nM: 0.01 µM; for Cell Inhibition % @100 nM: 0.1 µM
T1 sequence (Q07343 1-564 isoform Q07343-2): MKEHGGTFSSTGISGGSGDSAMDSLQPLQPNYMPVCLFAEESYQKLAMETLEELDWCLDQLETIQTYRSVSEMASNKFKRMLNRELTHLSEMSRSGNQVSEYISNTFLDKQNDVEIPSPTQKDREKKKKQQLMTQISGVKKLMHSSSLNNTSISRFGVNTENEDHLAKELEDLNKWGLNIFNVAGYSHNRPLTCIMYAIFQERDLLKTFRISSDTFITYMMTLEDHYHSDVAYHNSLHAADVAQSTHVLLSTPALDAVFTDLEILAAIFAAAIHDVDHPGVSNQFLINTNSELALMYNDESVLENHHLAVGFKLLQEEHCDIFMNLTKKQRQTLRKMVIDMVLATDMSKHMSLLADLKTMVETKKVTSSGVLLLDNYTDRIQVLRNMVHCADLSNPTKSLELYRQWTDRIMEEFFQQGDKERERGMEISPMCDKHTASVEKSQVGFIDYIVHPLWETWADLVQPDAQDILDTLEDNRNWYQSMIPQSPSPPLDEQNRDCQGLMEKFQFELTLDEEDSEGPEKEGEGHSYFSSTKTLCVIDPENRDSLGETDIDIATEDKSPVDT

PDE4B2 [2] = molecular target: T2, PDE4B2 (Homo sapiens, UniProt Q07343); test: biochemical; settings: for inhibition at 0.01 µM: read-out: PDE4B2 Enzyme Inhibition % @10 nM; for inhibition at 0.1 µM: read-out: PDE4B2 Enzyme Inhibition % @100 nM
T2 sequence (Q07343 1-564 isoform Q07343-2, species assumed): as the sequence (Q07343 1-564 isoform Q07343-2) above

Flpin-293-PDE4B2 cells [3] = molecular target: T1, Flpin-293-PDE4B2 cells; test: cell-based; settings: for inhibition at 0.01 µM: read-out: Cell Inhibition % @10 nM, 10 nM, Flpin-293-PDE4B2 cells; for inhibition at 0.1 µM: read-out: Cell Inhibition % @100 nM, 100 nM, Flpin-293-PDE4B2 cells; for inhibition at 0.001 µM: read-out: Cell Inhibition % @1 nM, 1 nM, Flpin-293-PDE4B2 cells
PDE4D2 = PDE4D2 (Homo sapiens, UniProt Q08499); test: PDE4D2 enzyme experiment (AMP-Glo)
PDE4D2, sequence (Q08499 303-809 limits assumed): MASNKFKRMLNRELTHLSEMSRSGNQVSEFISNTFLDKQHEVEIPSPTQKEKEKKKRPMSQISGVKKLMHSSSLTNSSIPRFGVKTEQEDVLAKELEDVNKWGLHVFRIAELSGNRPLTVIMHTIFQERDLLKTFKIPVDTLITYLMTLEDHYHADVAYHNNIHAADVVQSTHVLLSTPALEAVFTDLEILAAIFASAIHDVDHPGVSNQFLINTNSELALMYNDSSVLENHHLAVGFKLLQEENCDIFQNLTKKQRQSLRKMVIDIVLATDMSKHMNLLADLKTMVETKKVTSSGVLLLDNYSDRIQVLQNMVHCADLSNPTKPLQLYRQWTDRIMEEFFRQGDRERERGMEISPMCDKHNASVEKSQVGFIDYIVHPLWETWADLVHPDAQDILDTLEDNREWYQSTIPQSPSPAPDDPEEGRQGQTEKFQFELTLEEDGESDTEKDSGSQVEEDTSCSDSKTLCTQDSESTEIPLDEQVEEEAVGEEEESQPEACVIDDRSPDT

PDE4B2 [4] = molecular target: T2, PDE4B2; settings: read-out: PDE4B2 IC50; enzyme assay
[5] = read-out: PDE4D2 IC50 Binding, enzyme assay

inhibition at 0.01 µM (PDE4B2 [2]) [%]	inhibition at 0.1 µM (PDE4B2 [2]) [%]	inhibition at 0.01 µM (Flpin-293-PDE4B2 cells [3]) [%]	inhibition at 0.1 µM (Flpin-293-PDE4B2 cells [3]) [%]	IC50 (PDE4D2; [5]) [nM]	IC50 (PDE4B2 [4]) [nM]	inhibition at 0.001 µM (Flpin-293-PDE4B2 cells [3]) [%]	Compound	other results
72.3	98.6	9	33.2				[O-][S+]1CCc2nc(N3Cc4ccc(Cl)cc4C3)nc(NC3(CO)CCC3)c21 (stereo not drawn) [Compound 33]	
98.9	100	69.6	99				[O-][S+]1CCc2nc(N3CCc4ccc(Br)cc4CC3)nc(NC3(CO)CCC3)c21 (stereo not drawn) [Compound 46]	
70.9	98.2	17.7	55.2				O=[N+]([O-])c1ccc2c(c1)CN(c1nc3c(c(NC4(CO)CCC4)n1)[S+]([O-])CC3)C2 (stereo not drawn) [Compound 61]	
68.7	97.5	15.9	57.1				Cn1nc2c(c1Cl)CN(c1nc3c(c(NC4(CO)CCC4)n1)[S+]([O-])CC3)CC2 (stereo not drawn) [Compound 58]	
74.5	99	18.1	66.6				[O-][S+]1CCc2nc(N3CCc4ccsc4C3)nc(NC3(CO)CCC3)c21 (stereo not drawn) [Compound 36]	
93.3	99.9	52.8	93.4				[O-][S+]1CCc2nc(N3CCc4sc(Br)cc4C3)nc(NC3(CO)CCC3)c21 (stereo not drawn) [Compound 55]	
98.4	100						COc1ccc2c(c1)CCN(c1nc3c(c(NC4(CO)CCC4)n1)[S+]([O-])CC3)CC2 (stereo not drawn) [Compound 47]	
		33	94.2	1.55	0.515	10.5	C[C@@H]1CCCN1c1ccc2c(c1)CCN(c1nc3c(c(NC4(CO)CCC4)n1)[S+]([O-])CC3)C2 (stereo partly drawn) [Compound 133]	
		59.4	98.4	0.603	0.299	6.9	CC1(O)CCN(c2ccc3c(c2)CCN(c2nc4c(c(NC5(CO)CCC5)n2)[S+]([O-])CC4)C3)C1 (stereo not drawn) [Compound 175]	

Continued, molecule first:

Compound	inhibition at 0.01 µM (PDE4B2 [2]) [%]	inhibition at 0.1 µM (PDE4B2 [2]) [%]	inhibition at 0.01 µM (Flpin-293-PDE4B2 cells [3]) [%]	inhibition at 0.1 µM (Flpin-293-PDE4B2 cells [3]) [%]	IC50 (PDE4D2; [5]) [nM]	IC50 (PDE4B2 [4]) [nM]	inhibition at 0.001 µM (Flpin-293-PDE4B2 cells [3]) [%]	other results
C[C@@H]1c2ccc(Cl)cc2CCN1c1nc2c(c(NC3(CO)CCC3)n1)[S@+]([O-])CC2 [Compound 29]								IC50 (Flpin-293-PDE4B2 cells [1]): 20.9 nM
[O-][S+]1CCc2nc(N3CCc4cc(N5CCCC5C(F)(F)F)ccc4C3)nc(NC3(CO)CCC3)c21 (stereo not drawn) [Compound 158]					0.653	0.273		Cell Inhibition % @1 nM (Flpin-293-PDE4B2 cells [1]): 14.79%; Cell Inhibition % @10 nM (Flpin-293-PDE4B2 cells [1]): 61.64%; Cell Inhibition % @100 nM (Flpin-293-PDE4B2 cells [1]): 99.33%
[O-][S@+]1CCc2nc(N3CCc4c(ccc5[nH]ncc45)C3)nc(NC3(CO)CCC3)c21 [Compound 118, (R)-4-((1-(hydroxymethyl)cyclobutyl)amino)-2-(3,6,8,9-tetrahydro-7H-pyrazolo[4,3-f]isoquinolin-7-yl)-6,7-dihydrothieno[3,2-d]pyrimidine 5-oxide]								IC50 (PDE4B2 [2]): 0.414 nM; IC50 (PDE4D2): 0.748 nM
[O-][S+]1CCc2nc(N3Cc4ccc(C(F)(F)F)cc4C3)nc(NC3(CO)CCC3)c21 (stereo not drawn) [Compound 62]	83.8	101	29.5	69.1				
[O-][S+]1CCc2nc(N3CCc4cc(N5CCCC5C(F)(F)F)ccc4C3)nc(NC3(CO)CCC3)c21 (stereo not drawn) [Compound 157]				83.1			8.27	Cell Inhibition % @10 nM (Flpin-293-PDE4B2 cells [1]): 23.21%
N#CC1CCN(c2ccc3c(c2)CCN(c2nc4c(c(NC5(CO)CCC5)n2)[S+]([O-])CC4)C3)C1 (stereo not drawn) [Compound 160]					0.748	0.224		Cell Inhibition % @1 nM (Flpin-293-PDE4B2 cells [1]): 15.06%; Cell Inhibition % @10 nM (Flpin-293-PDE4B2 cells [1]): 75.05%; Cell Inhibition % @100 nM (Flpin-293-PDE4B2 cells [1]): 99.84%
C[C@H]1c2ccc(N3CCCC3)cc2CCN1c1nc2c(c(NC3(CO)CCC3)n1)[S+]([O-])CC2 (stereo partly drawn) [Compound 167]					0.993	0.087		IC50 (Flpin-293-PDE4B2 cells [1]): 20.7 nM
[O-][S+]1CCc2nc(N3CCc4cc(N5CCC(C(F)(F)F)C5)ccc4C3)nc(NC3(CO)CCC3)c21 (stereo not drawn) [Compound 156]			25.7	91.7	1.76	1.26	1.42	
[O-][S+]1CCc2nc(N3CCc4cc(N5CCCC5)ccc4C3)nc(NC3CCOCC3)c21 (stereo not drawn) [Compound 189]			93.5	101	0.145	0.066	24.4	
CC(C)(O)[C@@H]1CCN(c2ccc3c(c2)CCN(c2nc4c(c(NC5(CO)CCC5)n2)[S+]([O-])CC4)C3)C1 (stereo partly drawn) [Compound 173]			65.7	99.5	0.391	0.386	8.43	
CO[C@H]1CCN(c2ccc3c(c2)CCN(c2nc4c(c(NC5(CO)CCC5)n2)[S+]([O-])CC4)C3)C1 (stereo partly drawn) [Compound 151]			56.5	99.1	0.655	0.298	7.66	
[O-][S+]1CCc2nc(N3CCc4cc(N5CCC6(COC6)C5)ccc4C3)nc(NC3(CO)CCC3)c21 (stereo not drawn) [Compound 165]			76.8	99.9	0.398	0.351	10.3	
